The values below come from patent US6743812B1, “Pharmaceutical compositions and methods for use” (Targacept, Inc., priority 2000, dated 2004).

In general, Ki refers to a dissociation constant, usually derived from enzyme kinetics or from competition with a known ligand.

A short description of data set [1]: Water absorption (hygroscopicity) of salts. It is filed as physicochemical.
A further data set deals with CNS nicotinic receptors (Rattus norvegicus, UniProt P09483+P12390). The data set is described as follows: Determination of binding to relevant receptor sites. The following applies: binding to certain CNS nicotinic receptors; read-out: Ki (inhibition constant, calculated from IC50 by the method of Cheng et al.). The protocol:
Determination of Binding to Relevant Receptor Sites
Binding of the compounds to relevant receptor sites was determined in accordance with the techniques described in U.S. Pat. No. 5,597,919 to Dull et al. Inhibition constants (Ki values), reported in nM, were calculated from the IC50 values using the method of Cheng et al., Biochem, Pharnacol. 22:3099 (1973).

The nature of data set [2]: Physical and chemical stability of salt. Type of data set: physicochemical.
The next data set in a line: Water solubility of salt. It is filed as physicochemical.

CNS nicotinic receptors, sequence (P09483 31-630): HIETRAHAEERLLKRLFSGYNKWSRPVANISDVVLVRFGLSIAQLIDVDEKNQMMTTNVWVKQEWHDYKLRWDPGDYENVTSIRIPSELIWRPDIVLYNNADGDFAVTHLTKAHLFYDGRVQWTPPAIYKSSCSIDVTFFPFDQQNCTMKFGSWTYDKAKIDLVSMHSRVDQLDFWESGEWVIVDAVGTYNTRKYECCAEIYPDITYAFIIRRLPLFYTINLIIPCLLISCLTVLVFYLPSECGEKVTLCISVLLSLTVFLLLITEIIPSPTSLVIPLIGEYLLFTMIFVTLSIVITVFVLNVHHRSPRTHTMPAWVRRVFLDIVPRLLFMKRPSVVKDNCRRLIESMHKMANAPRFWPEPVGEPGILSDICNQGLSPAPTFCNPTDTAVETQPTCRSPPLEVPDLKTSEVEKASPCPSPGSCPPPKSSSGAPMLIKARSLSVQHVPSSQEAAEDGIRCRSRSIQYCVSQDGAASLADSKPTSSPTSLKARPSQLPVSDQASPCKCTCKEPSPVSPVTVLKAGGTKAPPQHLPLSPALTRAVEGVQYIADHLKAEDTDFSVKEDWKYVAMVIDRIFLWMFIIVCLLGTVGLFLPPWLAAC
CNS nicotinic receptors, sequence (P12390 25-500): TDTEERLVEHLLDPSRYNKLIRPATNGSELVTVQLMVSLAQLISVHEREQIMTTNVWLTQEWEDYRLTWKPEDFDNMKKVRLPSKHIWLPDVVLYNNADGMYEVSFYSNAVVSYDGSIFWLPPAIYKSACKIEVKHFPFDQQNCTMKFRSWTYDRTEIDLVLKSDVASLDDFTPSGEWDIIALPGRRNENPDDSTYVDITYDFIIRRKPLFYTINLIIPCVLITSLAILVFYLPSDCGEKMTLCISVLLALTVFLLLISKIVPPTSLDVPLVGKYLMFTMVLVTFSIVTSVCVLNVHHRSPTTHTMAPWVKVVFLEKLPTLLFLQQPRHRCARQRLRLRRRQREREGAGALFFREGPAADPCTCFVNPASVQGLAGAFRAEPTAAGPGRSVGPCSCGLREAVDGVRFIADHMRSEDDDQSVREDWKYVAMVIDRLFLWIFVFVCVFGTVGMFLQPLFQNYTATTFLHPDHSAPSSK

As to `CN[C@@H](C)C/C=C/c1cncc(OC(C)C)c1.CN[C@@H](C)C/C=C/c1cncc(OC(C)C)c1.O=C(O)[C@@H](O)[C@H](O)[C@H](O)[C@@H](O)C(=O)O` [hemigalactarate of (2S)-(4E)-N-methyl-5-[3-(5-isopropoxypyridin)yl)]-4-penten-2-amine, reference compound], the “amount of water absorbed” value in data set [1] (40° C. and 70% relative humidity) was determined as 11.8%.

For `CN[C@@H](C)C/C=C/c1cncc(OC(C)C)c1` [Sample No. 2, (2S)-(4E)-N-methyl-5-[3-(5-isopropoxypyridin)yl]-4-penten-2-amine hemi-(di-p-toluoyl-D-tartrate)], the Ki on CNS nicotinic receptors is 5 nM. In addition, in data set [2], the stability entry was “physically and chemically stable”. Also, the “amount of water absorbed” value in data set [1] (room temperature and 90% relative humidity) was 3.2%. Also, in data set [1] (single salt: versus corresponding salt derived from galactaric acid (mucic acid)), the “hygroscopicity compared with other salts” value is “less hygroscopic”. Also, the water solubility result in “Water solubility of salt” is given as “water soluble”.

As for `CN[C@@H](C)C/C=C/c1cncc(OC(C)C)c1` [Sample No. 1, (2S)-(4E)-N-methyl-5-[3-(5-isopropoxypyridin)yl]-4-penten-2-amine hemi-(di-p-toluoyl-L-tartrate)], the Ki at CNS nicotinic receptors was 6 nM.
